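Assay format: 96-well plates, 48-hour exposure. Abbreviation: GI50, concentration required for 50% inhibition of growth. TGI: concentration producing complete growth inhibition.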
Tests used:
Test in all cases: NCI tumour cell line growth inhibition, 48 h
SF-268 CNS = system: SF-268 CNS
UACC-257 melanoma = system: UACC-257 melanoma
PC-3 prostate = system: PC-3 prostate
DU-145 prostate = system: DU-145 prostate
HCT-15 colon = system: HCT-15 colon
MCF7 breast = system: MCF7 breast
MDA-MB-435 = system: MDA-MB-435
SK-MEL-2 melanoma = system: SK-MEL-2 melanoma
HOP-62 NSCLC = system: HOP-62 NSCLC
NCI/ADR-RES ovarian = system: NCI/ADR-RES ovarian
RPMI-8226 leukemia = system: RPMI-8226 leukemia
IGROV1 ovarian = system: IGROV1 ovarian
UO-31 renal = system: UO-31 renal
K-562 leukemia = system: K-562 leukemia
M14 melanoma = system: M14 melanoma
HOP-92 NSCLC = system: HOP-92 NSCLC
HL-60(TB) leukemia = system: HL-60(TB) leukemia
OVCAR-5 ovarian = system: OVCAR-5 ovarian
SNB-75 CNS = system: SNB-75 CNS
MDA-MB-231 breast = system: MDA-MB-231 breast
EKVX NSCLC = system: EKVX NSCLC
OVCAR-4 ovarian = system: OVCAR-4 ovarian
ACHN renal = system: ACHN renal
HCT-116 colon = system: HCT-116 colon
NCI-H226 lung = system: NCI-H226 lung
HS 578T breast = system: HS 578T breast
HT29 colon = system: HT29 colon
MOLT-4 leukemia = system: MOLT-4 leukemia

Cc1ccc(C2=Nn3c(nnc3-c3ccccc3)SC2)cc1
GI50 (SF-268 CNS): 6.37 µM
TGI (SF-268 CNS): > 100 µM
GI50 (UACC-257 melanoma): > 100 µM
TGI (UACC-257 melanoma): > 100 µM
GI50 (PC-3 prostate): 0.815 µM
TGI (PC-3 prostate): > 100 µM
GI50 (DU-145 prostate): 2.85 µM
TGI (DU-145 prostate): > 100 µM
GI50 (HCT-15 colon): 0.416 µM
TGI (HCT-15 colon): > 100 µM
GI50 (MCF7 breast): 1.6 µM
TGI (MCF7 breast): > 100 µM
GI50 (MDA-MB-435): 0.196 µM
TGI (MDA-MB-435): 0.459 µM
GI50 (SK-MEL-2 melanoma): 0.921 µM
TGI (SK-MEL-2 melanoma): 96.9 µM
GI50 (HOP-62 NSCLC): 1.23 µM
TGI (HOP-62 NSCLC): > 100 µM
GI50 (NCI/ADR-RES ovarian): 0.262 µM
TGI (NCI/ADR-RES ovarian): 0.881 µM
GI50 (RPMI-8226 leukemia): 0.895 µM
TGI (RPMI-8226 leukemia): > 100 µM
GI50 (IGROV1 ovarian): 0.801 µM
TGI (IGROV1 ovarian): > 100 µM
GI50 (UO-31 renal): 2.15 µM
TGI (UO-31 renal): > 100 µM
GI50 (K-562 leukemia): 0.321 µM
TGI (K-562 leukemia): > 100 µM
GI50 (M14 melanoma): 0.435 µM
TGI (M14 melanoma): > 100 µM
GI50 (HOP-92 NSCLC): 2.58 µM
TGI (HOP-92 NSCLC): > 100 µM
GI50 (HL-60(TB) leukemia): 0.333 µM
TGI (HL-60(TB) leukemia): > 100 µM
GI50 (OVCAR-5 ovarian): 2.57 µM
TGI (OVCAR-5 ovarian): > 100 µM
GI50 (SNB-75 CNS): 0.392 µM
TGI (SNB-75 CNS): 5.27 µM
GI50 (MDA-MB-231 breast): 0.497 µM
TGI (MDA-MB-231 breast): > 100 µM
GI50 (EKVX NSCLC): 6.84 µM
TGI (EKVX NSCLC): > 100 µM
GI50 (OVCAR-4 ovarian): 6.28 µM
TGI (OVCAR-4 ovarian): > 100 µM
GI50 (ACHN renal): 3.27 µM
TGI (ACHN renal): > 100 µM
GI50 (HCT-116 colon): 0.428 µM
TGI (HCT-116 colon): > 100 µM
GI50 (NCI-H226 lung): 3.45 µM
TGI (NCI-H226 lung): > 100 µM
GI50 (HS 578T breast): 1.2 µM
TGI (HS 578T breast): 25.6 µM
GI50 (HT29 colon): 0.412 µM
TGI (HT29 colon): 3.53 µM
GI50 (MOLT-4 leukemia): 0.461 µM
TGI (MOLT-4 leukemia): > 100 µM

— PubChem BioAssay (NCI)
